This note sets out measurements from US20240246941A1, “SUBSTITUTED 4-(3-AMINOPROP-1-YL)AMINOQUINOLINE ANALOGS AS MODULATORS OF MELANOMA-ASSOCIATED ANTIGEN 11 UBIQUITIN LIGASE” (ST. JUDE CHILDREN'S RESEARCH HOSPITAL, INC., priority 2020, published 2024).

Sequence of MAGE-A11:PCF11 (P43364 218-429): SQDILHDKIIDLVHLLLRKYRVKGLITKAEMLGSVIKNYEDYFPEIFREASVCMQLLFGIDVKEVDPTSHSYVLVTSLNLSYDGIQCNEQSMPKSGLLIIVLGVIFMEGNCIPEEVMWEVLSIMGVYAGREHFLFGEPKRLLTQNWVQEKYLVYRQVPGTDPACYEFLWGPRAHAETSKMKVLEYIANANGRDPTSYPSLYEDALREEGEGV

One experiment addresses MAGE-A11:PCF11 (Homo sapiens (Human), UniProt P43364). Nature of the experiment: TR-FRET single point screening at 15 μM. As to conditions: single point TR-FRET screening at 15 μM against MAGE-A11:PCF11. On the set-up: unit not given here. Format: binding. The essentials:
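Single-point screen at 15 μM (0.25% DMSO) measuring disruption of GST-MAGEA11 (5 nM) binding to FAM-PCF11_4 peptide (200 nM) detected by Tb-anti-GST (5 nM). Buffer 50 mM Tris pH 7.5, 20 mM MgCl2, 0.1 mg/ml BSA, 1 mM DTT; 90 min at ~25 °C; 520/490 nm ratio converted to % inhibition versus controls.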
A general note: Time-resolved FRET reads energy transfer from a long-lived donor to a nearby acceptor.
Take `CCCN(CCCNc1c2ccc(Cl)cc2nc2ccc(OC)cc12)Cc1ccc(C(=O)OC)cc1` [SJ000523018]: the TR-FRET signal is −118.6.

In the case of `CCCN(CCCNc1c2ccc(Cl)cc2nc2ccc(OC)cc12)Cc1ccc(-c2ccccc2[N+](=O)[O-])o1` [SJ000523019], the TR-FRET signal was −102.8.

For the compound `CCCN(CCCNc1c2ccc(Cl)cc2nc2ccc(OC)cc12)Cc1ccc(-c2cccc(Cl)c2)o1` [SJ000523020], the TR-FRET signal is −169.7.

`CCCN(CCCNc1c2ccc(Cl)cc2nc2ccc(OC)cc12)Cc1ccc([N+](=O)[O-])o1` [SJ000523022] showed a TR-FRET signal of −329.7.

Consider `COc1ccc2nc3cc(Cl)ccc3c(NCCCNCc3ccncc3)c2c1` [SJ000523023], for which the TR-FRET signal is listed as −127.6.

`COc1ccc2nc3cc(Cl)ccc3c(NCCCNCc3ccccn3)c2c1` [SJ000523024] showed a TR-FRET signal of −255.3.

For the compound `COc1ccc2nc3cc(Cl)ccc3c(NCCCNCCCSC)c2c1` [SJ000523025], the TR-FRET signal is listed as −336.9.

For the compound `COc1ccc2nc3cc(Cl)ccc3c(NCCCNCc3ccsc3)c2c1` [SJ000523026], the TR-FRET signal was −353.8.

`COc1ccc2nc3cc(Cl)ccc3c(NCCCNCCC(C)c3ccccc3)c2c1` (stereo not drawn) [SJ000523027] gave a TR-FRET signal of −340.3.

Regarding `COc1ccc2nc3cc(Cl)ccc3c(NCCCNCc3ccc(C)s3)c2c1` [SJ000523029], the TR-FRET signal is reported as −304.8.

As for `COc1ccc2nc3cc(Cl)ccc3c(NCCCNCc3ccc(Br)o3)c2c1` [SJ000523030], the TR-FRET signal is listed as −219.4.

In turn, `COc1ccc2nc3cc(Cl)ccc3c(NCCCNCc3ccco3)c2c1` [SJ000523032] displayed a TR-FRET signal of −165.3.

With `COc1ccc(CNCCCNc2c3ccc(Cl)cc3nc3ccc(OC)cc23)cc1` [SJ000523033], the TR-FRET signal is −338.9.

In turn, `COc1ccc2nc3cc(Cl)ccc3c(NCCCNCc3ccccc3F)c2c1` [SJ000523034] showed a TR-FRET signal of −353.8.

The compound `COc1ccc2nc3cc(Cl)ccc3c(NCCCNCc3ccc(F)cc3)c2c1` [SJ000523035] showed a TR-FRET signal of −398.2.

`COc1ccc2nc3cc(Cl)ccc3c(NCCCNCc3ccc(Cl)c([N+](=O)[O-])c3)c2c1` [SJ000523036] displayed a TR-FRET signal of −95.38.

Turning to `COc1ccc2nc3cc(Cl)ccc3c(NCCCNCc3cccc(C#N)c3)c2c1` [SJ000523037], the TR-FRET signal is recorded as −333.2.

With `COc1ccc2nc3cc(Cl)ccc3c(NCCCNCc3ccc4ccccc4c3)c2c1` [SJ000523038], the TR-FRET signal is −109.5.

Staying with this experiment, now noted: single point TR-FRET screening of quinoline compounds against MAGE-A11:PCF11; 15 μM.
`CCCN(CCCNc1ccnc2cc(Cl)ccc12)Cc1cnn(C)c1` [SJ000523009]: the TR-FRET signal is given as 10.06.

For the compound `CCCN(CCCNc1ccnc2cc(Cl)ccc12)Cc1[nH]cnc1C` [SJ000523010], the TR-FRET signal turned out to be 12.05.

For the compound `CCCN(CCCNc1ccnc2cc(Cl)ccc12)Cc1cc(OC(F)(F)F)ccc1OC` [SJ000523011], the TR-FRET signal is 15.67.

In turn, `CCCN(CCCNc1ccnc2cc(Cl)ccc12)Cc1cc(C(F)(F)F)ccc1OC` [SJ000523012] showed a TR-FRET signal of 30.4.

In the case of `CCCN(CCCNc1ccnc2cc(Cl)ccc12)Cc1cccc(C(F)(F)F)c1` [SJ000523013], the TR-FRET signal is recorded as 17.48.

As for `CCCN(CCCNc1ccnc2cc(Cl)ccc12)Cc1cccn1C` [SJ000523014], the TR-FRET signal turned out to be 22.71.

In the case of `CCCN(CCCNc1ccnc2cc(Cl)ccc12)CC1CCOC1` (stereo not drawn) [SJ000523016], the TR-FRET signal turned out to be 9.664.

For `CCCN(CCCCCC(=O)OC)CCCNc1ccnc2cc(Cl)ccc12` [SJ000523017], the TR-FRET signal was 14.3.

The compound `CCCN(CCCNc1c2ccc(Cl)cc2nc2ccc(OC)cc12)Cc1c(Cl)ccc(Cl)c1Cl` [SJ000523021] had a TR-FRET signal of 40.

As for `COc1ccc2nc3cc(Cl)ccc3c(NCCCNCc3ccc(N(C)C)c4ccccc34)c2c1` [SJ000523028], the TR-FRET signal is recorded as −1.532.

Consider `COc1ccc2nc3cc(Cl)ccc3c(NCCCNCc3ccccc3N)c2c1` [SJ000523031], for which the TR-FRET signal was −57.15.

`CCCN(CCCNc1ccnc2cc(Cl)ccc12)Cc1ccc(-c2ccccc2)cc1` [SJ000523039]: the TR-FRET signal amounted to 30.23.

Regarding `CCCN(CCCNc1ccnc2cc(Cl)ccc12)Cc1ccc2ccccc2c1` [SJ000523040], the TR-FRET signal turned out to be 32.85.

Compound `CCCN(CCCNc1ccnc2cc(Cl)ccc12)Cc1cccc(C)c1` [SJ000523041] yielded a TR-FRET signal of 28.55.

`CCCN(CCCNc1ccnc2cc(Cl)ccc12)Cc1ccc(C(=O)OC)cc1` [SJ000523042] yielded a TR-FRET signal of 16.72.

`CCCN(CCCNc1ccnc2cc(Cl)ccc12)Cc1ccc(Cl)cc1Cl` [SJ000523043] returned a TR-FRET signal of 12.1.

In turn, `CCCN(CCCNc1ccnc2cc(Cl)ccc12)Cc1ccc(-c2ccccc2[N+](=O)[O-])o1` [SJ000523044] registered a TR-FRET signal of 9.266.

Compound `CCCN(CCCNc1ccnc2cc(Cl)ccc12)Cc1ccc(-c2cccc(Cl)c2)o1` [SJ000523045] yielded a TR-FRET signal of 16.23.

`CCCN(CCCNc1ccnc2cc(Cl)ccc12)Cc1c(Cl)ccc(Cl)c1Cl` [SJ000523046] displayed a TR-FRET signal of 17.75.

Consider `CCCN(CCCNc1ccnc2cc(Cl)ccc12)Cc1ccc([N+](=O)[O-])o1` [SJ000523047], for which the TR-FRET signal was found to be 9.575.

`CCCCCCN(CCC)CCCNc1ccnc2cc(Cl)ccc12` [SJ000523048] showed a TR-FRET signal of 1.317.

The compound `Clc1ccc2c(NCCCNCc3ccncc3)ccnc2c1` [SJ000523049] had a TR-FRET signal of 6.077.

As for `Clc1ccc2c(NCCCNCc3ccccn3)ccnc2c1` [SJ000523050], the TR-FRET signal was 4.744.

In the case of `CSCCCNCCCNc1ccnc2cc(Cl)ccc12` [SJ000523051], the TR-FRET signal was found to be 14.97.

Compound `Clc1ccc2c(NCCCNCc3ccsc3)ccnc2c1` [SJ000523052] gave a TR-FRET signal of 15.25.

Compound `CC(CCNCCCNc1ccnc2cc(Cl)ccc12)c1ccccc1` (stereo not drawn) [SJ000523053] displayed a TR-FRET signal of 19.01.

On to `CCCCCNCCCNc1ccnc2cc(Cl)ccc12` [SJ000523057], for which the TR-FRET signal was 25.82.

In the case of `Cc1c(CNCCCNc2ccnc3cc(Cl)ccc23)c(=O)n(-c2ccccc2)n1C` [SJ000523058], the TR-FRET signal amounted to 5.584.

In turn, `O=[N+]([O-])c1ccccc1-c1ccc(CNCCCNc2ccnc3cc(Cl)ccc23)o1` [SJ000523068] returned a TR-FRET signal of 21.65.

In turn, `Clc1cccc(-c2ccc(CNCCCNc3ccnc4cc(Cl)ccc34)o2)c1` [SJ000523069] gave a TR-FRET signal of 33.51.

`CCCN(CCCNc1ccnc2cc(C(F)(F)F)ccc12)Cc1ccc(F)cc1` [SJ000523070] yielded a TR-FRET signal of 26.44.

`CCCN(CCCNc1ccnc2cc(C(F)(F)F)ccc12)Cc1ccccc1[N+](=O)[O-]` [SJ000523071]: the TR-FRET signal is on record as −7.745.

In turn, `CCCN(CCCNc1ccnc2cc(C(F)(F)F)ccc12)Cc1ccccc1OC` [SJ000523072] yielded a TR-FRET signal of 32.61.

In turn, `CCCN(CCCNc1ccnc2cc(C(F)(F)F)ccc12)Cc1ccccc1C(=O)O` [SJ000523073] yielded a TR-FRET signal of 16.86.

Compound `CCCN(CCCNc1ccnc2cc(C(F)(F)F)ccc12)Cc1cccc2ccccc12` [SJ000523074] gave a TR-FRET signal of 14.32.

Compound `CCCN(CCCNc1ccnc2cc(C(F)(F)F)ccc12)Cc1ccc2ccccc2c1` [SJ000523075] showed a TR-FRET signal of 11.39.
